Source: US11957760B2, “Folate receptor targeted nanoparticle drug conjugates and uses thereof” (priority 2020, dated 2024)
Read-outs that look alike come from different tables or passages of the source.

Columns and labels:
naïve KB cells = experiment: IC50 assay in naïve KB cells; assay type: cell-based; details: Homo sapiens; naïve (regular) KB cells
Description: (§1) Naïve human KB cell line were purchased from ATCC and maintained in folic acid free RPMI 1640 media/10% FBS, and 1% of penicillin/streptomycin. To develop the TOP1 inhibitor resistant KB cells, the cells in flask (50-60% confluence) were repeatedly treated with increasing concentration of exatecan, topotecan, SN-38 or irinotecan for over 4 months. The starting TOP1 inhibitor treatment concentration was close to the KB cell's IC90 values. After each treatment, the cells were carefully washed with fresh RPMI 1640 media and left to proliferate for an additional 2-3 days until reaching 50-60% confluence.
(§2) Both naïve and TOP1 inhibitor resistant KB cell were cultured in folic acid-free medium (RPMI1640, ThermoFisher, GIBCO). Cells were plated in opaque 96-well plates at a density of 3×10^3 cells per well (total of 90 μL) and allowed to attach overnight. […] After exposing the TOP1 inhibitors with both types of cells for the same period of time, the cell viability was assessed using the CellTiter-Glo2.0 assay (Promega) according to manufacturer's instructions. Data for both viability and proliferation were plotted using Prism7 software (GraphPad). The resistant factor can be calculated by using the following equation:

[1] = system: exatecan-resistant KB cells; experiment: IC50 assay in exatecan-resistant KB cells; assay type: cell-based, human; details: for IC50: Homo sapiens
Description: To develop the TOP1 inhibitor resistant KB cells, the cells in flask (50-60% confluence) were repeatedly treated with increasing concentration of exatecan, topotecan, SN-38 or irinotecan for over 4 months. The starting TOP1 inhibitor treatment concentration was close to the KB cell's IC90 values.
The following day, cells were treated with selected TOP1 inhibitors (e.g., free exatecan) or NDC at suitable concentration ranges. […] The resistant factor can be calculated by using the following equation: […]

[2] = system: irinotecan-resistant KB cells; experiment: IC50 assay in irinotecan-resistant KB cells; assay type: cell-based, human
Description: as §1, §2

Compound | IC50 (naïve KB cells) | resistance of exatecan-resistant versus naïve KB cells [1] | IC50 ([1]; KB, KB cells pretreated 7× with exatecan) | IC50 ([1]; KB cells pretreated 4× with exatecan, read-out: IC50) | resistance of irinotecan-resistant versus naïve KB cells [2] | IC50 ([2]; Homo sapiens, irinotecan-resistant KB cells)
CC[C@@]1(O)C(=O)OCc2c1cc1n(c2=O)Cc2c-1nc1cc(F)c(C)c3c1c2[C@@H](N)CC3 [exatecan] | 2 nM | > 8 × | 16.9 nM | 4 nM | – | –
CCc1c2c(nc3ccc(OC(=O)N4CCC(N5CCCCC5)CC4)cc13)-c1cc3c(c(=O)n1C2)COC(=O)[C@]3(O)CC [irinotecan] | 668 nM | – | – | – | 5 × | 3620 nM
